Measurements published in patent publication US20250179429A1, “CELL CULTURE MEDIUM” (Auckland UniServices Limited, priority 2017, published 2025).
“Also recorded” adds a separate entry of the source. Structures can show the parent of a compound that is named as a salt. Where two headings read alike, the source gives them in different places.

Assays:
[1] = tested on: Human primary keratinocytes; assay: Keratinocyte growth in culture media: rhodamine B staining, confluency measured with Operetta plate reader; format: cell-based; conditions: for effect of ROCK inhibitor on keratinocyte growth, FIG. 3: Y27632 10 μm vs SB772077B 400 nM in Base, Kelch's or Green's medium, 3 donors; for effect of Y27632 on keratinocyte growth, FIG. 5: 8 days
epidermal cells = assay: Greens, Cellntech, S7, EDGS medium comparison (rhodamine B, confluency score 0 to 4); format: cell-based; conditions: added to Green's medium with MEFs and commercial keratinocyte growth media
Description: Epidermal cells were grown in Greens medium with MEFs, CnT Prime, Epilife medium supplemented with S7 or EDGS. All media were tested with and without ROCK inhibitor Y27632. 550,000 epidermal cells were grown in each medium until one sample reached 80% confluence, at this point all samples were fixed and stained for rhodamine B. Sample confluency was then assigned a score between 0 and 4, 0 having no cells, and 4 having maximum confluency. N=2.
Flasks were pre-coated with a coating matrix for S7 and EDGS supplemented Epilife medium samples. 1.7 ml of dilution buffer was added to each T25 flask. Then 17 μl of coating matrix was added. The mixture was incubated at room temperature for 30 minutes. Next, the dilution buffer and coating matrix mix were removed from the flasks before adding cells and media.
550,000 epidermal cells and 5 ml of each required medium was added, with or without 10 μl Y27632, to a T25 flask. The flask was incubated at 37° C. with 5% CO2 until one sample reached 80% confluency.
Next, the medium was removed from the flasks and the cells fixed with 4% formaldehyde for 30 minutes. 1% rhodamine B solution was added and the cells incubated at room temperature for 10 minutes. The rhodamine B solution was removed and the cells thoroughly rinsed with water. Finally, all liquid from the flasks was removed using a pipette. The cells were imaged and confluency was calculated.

[2] = Green's media + Y27632, MEFs not present

## CCn1c(-c2nonc2N)nc2cncc(C(=O)N3CC[C@H](N)C3)c21 [SB772077B, (3S)-1-[[2-(4-Amino-1,2,5-oxadiazol-3-yl)-1-ethyl-1H-imidazo[4,5-c]pyridin-7-yl]carbonyl]-3-pyrrolidinamine dihydrochloride, reference compound]
[1]; SB 772077B vs Y27632
  ROCK inhibitor concentration to achieve the same effect (enhancing keratinocyte growth rates): ~400 nm
[1]; dihydrochloride
  effect of ROCK inhibitor on keratinocyte growth, FIG. 3: comparable effects on keratinocyte growth; also recorded: can be used as substitute for Y27632 for keratinocyte growth

## C[C@@H](N)[C@H]1CC[C@H](C(=O)Nc2ccncc2)CC1 [Y27632, reference compound]
[1]
  effect of ROCK inhibitor on keratinocyte growth, FIG. 3: comparable effects on keratinocyte growth
[1]; Y27632 vs SB 772077B
  ROCK inhibitor concentration to achieve the same effect (enhancing keratinocyte growth rates): 10 μm
[1]; added to Green's medium with MEFs
  effect of Y27632 on keratinocyte growth, FIG. 5: can enhance growth of keratinocytes
[1]; added to serum-free Optipeak media
  effect of Y27632 on keratinocyte growth, FIG. 5: enhanced growth of keratinocytes; also recorded: a few colonies started to develop
Epidermal cells
  effect of Y27632 on keratinocyte growth, FIG. 6: may also enhance growth of keratinocytes in other keratinocyte growth media; also recorded: enhanced keratinocyte growth in Green's medium, S7 medium and CnT Prime medium

## Nc1ncnc2nc[nH]c12 [adenine]
[1]; [2]
  effect on keratinocyte growth of leaving one component out of Green's media, FIG. 1: appears to enhance growth of keratinocytes

## EGF: epidermal growth factor, component of Green's medium at 10 ng/ml (NSDSECPLSHDGYCLHDGVCMYIEALDKYACNCVVGYIGERCQYRDLKWWELR; Epidermal growth factor; UniProt P01133 971-1023, looked up)
[1]; [2]
  effect on keratinocyte growth of leaving one component out of Green's media, FIG. 1: important components of Green's medium in generating keratinocyte proliferation; also recorded: negatively affect keratinocyte growth
[1]; data not shown
  effect of EGF on keratinocyte growth (later finding): not enhancing keratinocyte growth

## choleratoxin
[1]
  effect on keratinocyte growth of leaving one component out of Green's media, FIG. 1: important components of Green's medium in generating keratinocyte proliferation; also recorded: negatively affect keratinocyte growth; also recorded: one of the most important single ingredients of Green's media
